Experimental data published in patent US20230381133A1, “TAU AND AMYLOID PROTEIN LOWERING COMPOUNDS AND METHODS OF USE” (Qatar Foundation for Education, Science and Community …, priority 2022, published 2023).

Legend:
Pick disease patient = assay: Treatment of a Pick disease patient; assay type: in vivo; conditions: compared to a non-treated patient
Protocol: A therapeutically effective amount of the TA analog 2-(2-cyanophenylthio) benzoic acid is administered to a Pick disease patient.

CTE patient = assay: Treatment of a Chronic Traumatic Encephalopathy (CTE) patient; assay type: in vivo; conditions: compared to a non-treated patient
Protocol: A therapeutically effective amount of the TA analog 2-(2-cyanophenylthio) benzoic acid is administered to a CTE patient.

FTLD patient = assay: Treatment of a Frontotemporal Lobar Degeneration (FTLD) patient; assay type: in vivo; conditions: compared to a non-treated patient
Protocol: A therapeutically effective amount of the TA analog 2-(2-cyanophenylthio) benzoic acid is administered to an FTLD patient.

AD patient = assay: Treatment of an AD patient; assay type: in vivo; conditions: compared to a non-treated patient
Protocol: A therapeutically effective amount of the TA analog 2-(2-cyanophenylthio) benzoic acid is administered to an AD patient.

Down's Syndrome patient = assay: Treatment of a Down's Syndrome patient; assay type: in vivo; conditions: compared to a non-treated patient
Protocol: A therapeutically effective amount of the TA analog 2-(2-cyanophenylthio) benzoic acid is administered to a Down's Syndrome patient.

[1] = system: corticobasal degeneration patient; assay: Treatment of a corticobasal degeneration patient; assay type: in vivo; conditions: compared to a non-treated patient
Protocol: A therapeutically effective amount of the TA analog 2-(2-cyanophenylthio) benzoic acid is administered to a corticobasal degeneration patient.

TBI patient = assay: Treatment of a Traumatic Brain Injury (TBI) patient; assay type: in vivo; conditions: compared to a non-treated patient
Protocol: A therapeutically effective amount of the TA analog 2-(2-cyanophenylthio) benzoic acid is administered to a TBI patient.

bvFTLD patient = assay: Treatment of a Behavioral Variant Frontotemporal Dementia (bvFTLD) patient; assay type: in vivo; conditions: compared to a non-treated patient
Protocol: A therapeutically effective amount of the TA analog 2-(2-cyanophenylthio) benzoic acid is administered to a bvFTLD patient.

PSP patient = assay: Treatment of a Progressive Supranuclear Palsy (PSP) patient; assay type: in vivo; conditions: compared to a non-treated patient
Protocol: A therapeutically effective amount of the TA analog 2-(2-cyanophenylthio) benzoic acid is administered to a PSP patient.

[2] = background statement; cited from earlier work
SP1 = SP1 (Homo sapiens, UniProt P08047); conditions: background statement; cited from earlier work
SP1, sequence (P08047 whole entry): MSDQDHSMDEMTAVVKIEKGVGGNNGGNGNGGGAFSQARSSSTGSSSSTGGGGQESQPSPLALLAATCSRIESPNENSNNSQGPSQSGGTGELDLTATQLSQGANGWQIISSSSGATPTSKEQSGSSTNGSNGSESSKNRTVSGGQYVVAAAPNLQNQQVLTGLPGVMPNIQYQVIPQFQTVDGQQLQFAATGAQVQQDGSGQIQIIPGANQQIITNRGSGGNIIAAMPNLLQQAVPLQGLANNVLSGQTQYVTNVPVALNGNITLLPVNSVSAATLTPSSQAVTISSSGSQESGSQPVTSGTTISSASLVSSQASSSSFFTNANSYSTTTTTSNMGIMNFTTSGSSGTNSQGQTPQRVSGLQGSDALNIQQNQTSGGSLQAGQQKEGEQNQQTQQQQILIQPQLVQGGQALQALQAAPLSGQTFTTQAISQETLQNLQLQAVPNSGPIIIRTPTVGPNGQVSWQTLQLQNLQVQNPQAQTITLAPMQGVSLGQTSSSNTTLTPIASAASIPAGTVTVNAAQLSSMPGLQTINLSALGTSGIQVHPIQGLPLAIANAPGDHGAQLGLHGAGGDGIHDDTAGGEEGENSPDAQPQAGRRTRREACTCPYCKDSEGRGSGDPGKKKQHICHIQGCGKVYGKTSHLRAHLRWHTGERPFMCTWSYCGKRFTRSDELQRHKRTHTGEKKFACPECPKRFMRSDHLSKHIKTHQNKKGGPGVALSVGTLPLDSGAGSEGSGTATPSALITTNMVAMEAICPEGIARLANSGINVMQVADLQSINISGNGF

SMILES	patient's symptoms (Pick disease patient)	patient's symptoms (CTE patient)	patient's symptoms (FTLD patient)	patient's symptoms (AD patient)	patient's symptoms (Down's Syndrome patient)	patient's symptoms [1]	patient's symptoms (TBI patient)	patient's symptoms (bvFTLD patient)	patient's symptoms (PSP patient)	ability to cross the blood brain barrier (BBB) [2]	interaction with SP1 (SP1)
N#Cc1ccccc1Sc1ccccc1C(=O)O [2-(2-cyanophenylthio) benzoic acid, 2-(2-cyanophenylthio)benzoic acid]	symptoms are reduced	symptoms are reduced	symptoms are reduced	symptoms are reduced	symptoms are reduced	symptoms are reduced	symptoms are reduced	symptoms are reduced	symptoms are reduced	–	–
Cc1c(Cl)cccc1Nc1ccccc1C(=O)O [TA, Tolfenamic Acid]	–	–	–	–	–	–	–	–	–	cross the blood brain barrier	interact directly with SP1
